According to patent US20040001818A1, “Methods of inhibiting angiogenesis using NADPH oxidase inhibitors” (priority 2000, published 2004):
Like-named read-outs stand apart in the source and are kept apart here.

Columns and labels:
eNOS protein = settings: 40 ng/ml VEGF, any time point 0.5-24 hours
Experimental: Western blot analyses. Whole cell protein extracts were prepared from serum-starved HCAECs and HPAECs one hour following addition of growth factor-supplemented or mock-treated media. Cells were washed twice with cold phosphate-buffered saline, harvested with a cell scraper, and lysed in ice-cold lysis buffer containing 20 mM HEPES, pH 7.5, 150 mM NaCl, 1% NP-40, 0.1% SDS, 1 mM EDTA, 1 mM DTT, 0.5 mM phenylmethylsulfonyl fluoride (PMSF), and the protease inhibitor cocktail (Boehringer Mannheim, Mannheim, Germany) for one hour. The resulting lysates were centrifuged at 10,000× g for 20 minutes and the supernatants were saved as whole cell protein extracts. Forty micrograms of protein were separated by 10% SDS-PAGE and electrotransferred to nitrocellulose membranes. Membranes were blocked with 5% nonfat dry milk in Tris-buffered saline with 0.1% Tween 20 for one hour at room temperature. The blot was incubated with primary rabbit polyclonal anti-MnSOD IgG (1:1000 dilution) (Santa Cruz Biotechnology Inc., Santa Cruz, Calif., USA) overnight at 4° C., followed by secondary antibody goat-anti-rabbit horseradish peroxidase conjugate (1:1000 dilution) (Pierce, Rockford, Ill., USA). The blot was washed extensively between each incubation step. […] Endothelial cells were labeled with DCFDA and oxidation of DCF was measured by flow cytometry.

MnSOD mRNA [1] = assay: Northern blot of MnSOD mRNA in HCAECs; format: cell-based, human
Experimental: Cell culture. Human coronary artery endothelial cells (HCAECs) (Clonetics Corporation, San Diego, Calif., USA) and human pulmonary artery endothelial cells (HPAECs) were grown in Endothelial Growth Medium-2-MV (EGM-2-MV) BulletKit (Clonetics Corporation, San Diego, Calif., USA). At 80-90% confluence, the cells were serum-starved in DMEM containing 0.5% FBS for 24 hours and subsequently treated with VEGF-supplemented medium for the times indicated. Human recombinant VEGF was purchased from PeproTech, Inc. (Rocky Hill, N.J., USA). […] In other studies, the serum-starved cells were pretreated with the MEK inhibitor PD98059 at a final concentration of 50 μM or a specific PKC inhibitor bisindolylmaleimide I (BIM; CalBiochem, San Diego, Calif., USA) at a final concentration of 5 μM for 30 minutes prior to addition of growth factors. An equal amount of DMSO was added to the control plates. Northern blot analyses. Ten micrograms total RNA was loaded on a 0.7% formaldehyde-containing agarose gel. The RNA was transferred to nylon membrane, covalently cross-linked with UV radiation, prehybridized for 6 hours, and hybridized for 18 hours at 42° C. with a [^32P]dCTP-labeled cDNA probe containing MnSOD or eNOS cDNA sequence. The membranes were subsequently stripped and probed with a radiolabeled 18S-ribosome probe. For actinomycin D experiments, HCAEC cells were pretreated with 10 μg/ml actinomycin D (Sigma Chemical Company, St. Louis, Mo., USA) for 30 minutes before addition of VEGF and were harvested for total RNA one hour later.
To determine whether VEGF induced expression of MnSOD in primary endothelial cell cultures, HCAECs and HPAECs were serum starved for 24 hours, treated with 40 ng/ml VEGF for 0, 0.5, 1, 2, 4, 12 and 24 hours, and then harvested for total RNA. Northern blots were performed and probed for human MnSOD. […] The membranes were then stripped and reprobed for eNOS.
To determine whether the response of MnSOD to VEGF was mediated by ROS, HCAECs were serum starved and then treated with VEGF in the absence or presence of inhibitors of NADPH oxidase (DPI, apocynin), xanthine oxidase (allopurinol) and nitric oxide synthase (L-NAME).

MnSOD protein = settings: 40 ng/ml VEGF; for MnSOD protein: 0.5-24 hours
Experimental: (§1) Western blot analyses. Whole cell protein extracts were prepared from serum-starved HCAECs and HPAECs one hour following addition of growth factor-supplemented or mock-treated media. Cells were washed twice with cold phosphate-buffered saline, harvested with a cell scraper, and lysed in ice-cold lysis buffer containing 20 mM HEPES, pH 7.5, 150 mM NaCl, 1% NP-40, 0.1% SDS, 1 mM EDTA, 1 mM DTT, 0.5 mM phenylmethylsulfonyl fluoride (PMSF), and the protease inhibitor cocktail (Boehringer Mannheim, Mannheim, Germany) for one hour. The resulting lysates were centrifuged at 10,000× g for 20 minutes and the supernatants were saved as whole cell protein extracts. Forty micrograms of protein were separated by 10% SDS-PAGE and electrotransferred to nitrocellulose membranes. Membranes were blocked with 5% nonfat dry milk in Tris-buffered saline with 0.1% Tween 20 for one hour at room temperature. The blot was incubated with primary rabbit polyclonal anti-MnSOD IgG (1:1000 dilution) (Santa Cruz Biotechnology Inc., Santa Cruz, Calif., USA) overnight at 4° C., followed by secondary antibody goat-anti-rabbit horseradish peroxidase conjugate (1:1000 dilution) (Pierce, Rockford, Ill., USA). The blot was washed extensively between each incubation step. Peroxidase activity was visualized with an enhanced chemiluminescense substrate system (Amersham, Arlington Heights, Ill., USA). Membranes were stripped and probed for eNOS and β-actin. Flow cytometry. Endothelial cells were labeled with DCFDA and oxidation of DCF was measured by flow cytometry.
Serum-starved HCAECs and HPAECs were treated with 40 ng/ml VEGF for 0.5-24 hours and then harvested for total protein.

eNOS mRNA = settings: either cell type (HCAEC, HPAEC), 40 ng/ml VEGF
Experimental: (§2) Cell culture. Human coronary artery endothelial cells (HCAECs) (Clonetics Corporation, San Diego, Calif., USA) and human pulmonary artery endothelial cells (HPAECs) were grown in Endothelial Growth Medium-2-MV (EGM-2-MV) BulletKit (Clonetics Corporation, San Diego, Calif., USA). At 80-90% confluence, the cells were serum-starved in DMEM containing 0.5% FBS for 24 hours and subsequently treated with VEGF-supplemented medium for the times indicated. Human recombinant VEGF was purchased from PeproTech, Inc. (Rocky Hill, N.J., USA). In inhibition studies, the serum-starved HCAEC cells were preincubated with diphenyleneiodonium (DPI), apocynin, allopurinol, L-NAME, or anthrone for one hour and then incubated in the absence or presence of 40 ng/ml VEGF for another hour. In other studies, the serum-starved cells were pretreated with the MEK inhibitor PD98059 at a final concentration of 50 μM or a specific PKC inhibitor bisindolylmaleimide I (BIM; CalBiochem, San Diego, Calif., USA) at a final concentration of 5 μM for 30 minutes prior to addition of growth factors. An equal amount of DMSO was added to the control plates. Northern blot analyses. Ten micrograms total RNA was loaded on a 0.7% formaldehyde-containing agarose gel. The RNA was transferred to nylon membrane, covalently cross-linked with UV radiation, prehybridized for 6 hours, and hybridized for 18 hours at 42° C. with a [^32P]dCTP-labeled cDNA probe containing MnSOD or eNOS cDNA sequence. The membranes were subsequently stripped and probed with a radiolabeled 18S-ribosome probe. For actinomycin D experiments, HCAEC cells were pretreated with 10 μg/ml actinomycin D (Sigma Chemical Company, St. Louis, Mo., USA) for 30 minutes before addition of VEGF and were harvested for total RNA one hour later.
(§3) To determine whether VEGF induced expression of MnSOD in primary endothelial cell cultures, HCAECs and HPAECs were serum starved for 24 hours, treated with 40 ng/ml VEGF for 0, 0.5, 1, 2, 4, 12 and 24 hours, and then harvested for total RNA. Northern blots were performed and probed for human MnSOD. […]

MnSOD mRNA [2] = settings: HPAEC, 40 ng/ml VEGF
Experimental: as §2, §3

ROS = ROS generation: DCF oxidation by flow cytometry in DCFDA-labeled HCAECs; format: cell-based, human; settings: relative to basal rate of control cells
Experimental: as §1
To test whether VEGF increases ROS production in endothelial cells, HCAECs were labeled with […] DCFDA and oxidation of DCF was measured by flow cytometry. […] PMS is known to induce free oxygen radicals.

MnSOD mRNA [3] = assay: Northern blot of MnSOD mRNA in organs of mice after intraperitoneal VEGF; format: in vivo, mouse; settings: four hours after intraperitoneal injection of 20 μg VEGF
Experimental: Mice and injection of growth factors. Female FVB mice (4 to 8 weeks old; 18 to 22 grams) were obtained from Taconic (Germantown, N.Y., USA). All protocols were approved by the Institutional Animal Care and Use Committee of the Beth Israel Deaconess Medical Center. Mice were injected intraperitoneally with VEGF (1.0 μg/g body weight).
Injection of VEGF into the intraperitoneal cavity of mice results in widespread distribution of the growth factor and phosphorylation of the VEGF receptor, Flk-1. In this study, therefore, organs were removed from mice four hours following intraperitoneal injection of either normal saline or 20 μg VEGF and harvested for total RNA. Northern blot analyses were then carried out to determine whether VEGF induced the expression of a panel of genes, including MnSOD.

In the case of VEGF, the eNOS protein levels (eNOS protein) is reported as “did not increase”, the “time of peak MnSOD mRNA levels” value (MnSOD mRNA [1]; HCAEC, 40 ng/ml VEGF) is reported as 4 h and the “MnSOD mRNA levels” value (MnSOD mRNA [1]; HCAEC, 40 ng/ml VEGF, between one hour and 24 hours) is reported as “increased”. For the same substance, the “VEGF concentration of maximal MnSOD induction” value (MnSOD mRNA [1]; dose-response 0, 1, 5, 10, 100 ng/ml VEGF) was 100 ng/mL, the “time of maximal MnSOD protein levels” value (MnSOD protein; HCAECs) was 12 to 24 h and the MnSOD protein (MnSOD protein; HCAECs) was “significantly induced”. The “time of maximal MnSOD protein levels” value (MnSOD protein; HPAECs) was 12 to 24 h, the MnSOD protein (MnSOD protein; HPAECs) was “significantly induced” and the “eNOS mRNA induction” value (eNOS mRNA) was “not induced”. For the same substance, the “time of peak MnSOD mRNA levels” value (MnSOD mRNA [2]) was 4 h, the “MnSOD mRNA levels” value (MnSOD mRNA [2]; between 2 and 24 hours) was “increased” and the “DCF oxidation (ROS production)” value (ROS) was “no change”. For the same substance, the “MnSOD mRNA levels in other tissues (lung, brain, liver, spleen, skeletal muscle)” value (MnSOD mRNA [3]) was “not” and the “MnSOD mRNA levels in the heart and the kidney” value (MnSOD mRNA [3]) was “increased”.
